Test system: subjects with chronic idiopathic thrombocytopenic purpura (ITP)
Assay: Phase 2 28-day study of E5501 tablets: safety and tolerability (TEAEs, discontinuations)
Format: in vivo, human
Settings: for Discontinued study, primary reason Adverse Event or SAE / Discontinued study, primary reason Platelet Count Increase to ≧500 K/mm^3: Pharmacokinetic Population; for Abdominal pain / Diarrhoea / Ecchymosis / Epistaxis / Fatigue / Headache / Migraine / Nausea / Pain in extremity / Petechiae / Platelet count increased / Upper respiratory tract infection / Vomiting: TEAE
Protocol: This was a phase 2, multi-center, double-blind, randomized, placebo-controlled, dose-ranging, parallel group study of E5501 tablets, used in the treatment of subjects with chronic idiopathic thrombocytopenic purpura (ITP) refractory to or relapsed after at least one prior ITP therapy. Subjects who met all entry criteria were randomly assigned in a 3:3:3:3:1 ratio to one of the following five treatment groups dosed daily for 28 days: 1) E5501 2.5 mg; 2) E5501 5 mg; 3) E5501 10 mg; 4) E5501 20 mg; or 5) placebo (PBO). Each E5501 dosing group consisted of 15 subjects while the PBO group consisted of 5 subjects. All study subjects were evaluated weekly (days 7, 14, 21 and 28) for safety and efficacy while receiving study treatment, with a final assessment for safety and effectiveness performed 4 weeks after the last study dose (day 56) unless the subject entered the follow-on study. Platelet counts were also measured on day 3 and day 5.
The safety and tolerability parameters included adverse events, clinical laboratory parameters, study drug exposure, vital electrocardiograms, concomitant medications, serum pregnancy tests for women of childbearing potential and physical examinations including height, weight, general appearance and recording of vital signs.
The populations of interest were defined as follows: • The randomized population included all subjects who were randomized into the study. • The safety population included all randomized subjects who receive at least one dose of study drug and have at least one safety assessment. • The pharmacokinetic (PK) population included all subjects who provided blood sample for analysis of E5501. A subject was included in this population if the subject had at least one blood draw for PK assessment. • The full analysis set (FAS) included all subjects who provided adequate data to derive at least one efficacy assessment. […] The day 28 visit window was defined to be from day 25, to last dose day+1, inclusively; • Other major protocol violations that impacted the platelet endpoint evaluation. Results from Planned Analyses
Subject Disposition. Sixty four subjects were randomly assigned to treatment in this study. All treated subjects provided adequate efficacy data and therefore were included in the FAS population. The number and percentage of subjects who completed treatment or discontinued prematurely were summarized by treatment groups as shown in Table 1. In addition, the number and percentage of subjects who withdrew were summarized by reason for discontinuation by treatment group. The majority (>85%) of subjects completed the study across all dose groups for the FAS, randomized, and safety populations. Seven subjects who discontinued the study early all were from E5501 dose groups: two subjects in each of 2.5, 10 and 20 mg dose groups and one subject in the 5 mg dose group.

O=C(Nc1nc(-c2cc(Cl)cs2)c(N2CCN(C3CCCCC3)CC2)s1)c1cnc(N2CCC(C(=O)O)CC2)c(Cl)c1 [E5501, 1-(3-chloro-5-{[4-(4-chlorothiophen-2-yl)-5-(4-cyclohexylpiperazin-1-yl)thiazol-2-yl]carbamoyl}pyridine-2-yl)piperidine-4-carboxylic acid]
diarrhea, nausea and vomiting, total events: 12 events
subjects whose platelet count decreased to below that of baseline upon discontinuation of E5501: 3 subjects
subjects with diarrhea, nausea and vomiting events: 7 subjects
tolerability and safety profile: well tolerated and had a favorable safety profile
Death (2.5 mg): 0 n (%)
Serious TEAEs (Any Serious TEAE) (2.5 mg): 2 (13.3) n (%)
TEAE Leading to Study Treatment Dose Interruption (2.5 mg): 0 n (%)
TEAE Leading to Study Treatment Withdrawal (2.5 mg): 0 n (%)
TEAEs (2.5 mg): 12 (80.0) n (%)
Treatment-Related Serious TEAEs (2.5 mg): 0 n (%)
Treatment-Related TEAEs (2.5 mg): 6 (40.0) n (%)
number of serious TEAEs (2.5 mg): 2
Death (5 mg): 0 n (%)
Serious TEAEs (Any Serious TEAE) (5 mg): 0 n (%)
TEAE Leading to Study Treatment Dose Interruption (5 mg): 1 (6.7) n (%)
TEAE Leading to Study Treatment Withdrawal (5 mg): 1 (6.7) n (%)
TEAEs (5 mg): 13 (86.7) n (%)
Treatment-Related Serious TEAEs (5 mg): 0 n (%)
Treatment-Related TEAEs (5 mg): 11 (73.3) n (%)
Death (10 mg): 0 n (%)
Serious TEAEs (Any Serious TEAE) (10 mg): 1 (7.1) n (%)
TEAE Leading to Study Treatment Dose Interruption (10 mg): 0 n (%)
TEAE Leading to Study Treatment Withdrawal (10 mg): 1 (7.1) n (%)
TEAEs (10 mg): 11 (78.6) n (%)
Treatment-Related Serious TEAEs (10 mg): 1 (7.1) n (%)
Treatment-Related TEAEs (10 mg): 8 (57.1) n (%)
number of serious TEAEs (10 mg): 4
Death (20 mg): 0 n (%)
Serious TEAEs (Any Serious TEAE) (20 mg): 0 n (%)
TEAE Leading to Study Treatment Dose Interruption (20 mg): 2 (13.3) n (%)
TEAE Leading to Study Treatment Withdrawal (20 mg): 2 (13.3) n (%)
TEAEs (20 mg): 14 (93.3) n (%)
Treatment-Related Serious TEAEs (20 mg): 0 n (%)
Treatment-Related TEAEs (20 mg): 10 (66.7) n (%)
subjects who withdrew due to excessively increased platelet counts (≧500,000/mm^3) (20 mg): 2 subjects
Discontinued study, primary reason Adverse Event or SAE (2.5 mg): 0 n (%)
Discontinued study, primary reason Platelet Count Increase to ≧500 K/mm^3 (2.5 mg): 0 n (%)
Discontinued study, primary reason Adverse Event or SAE (5 mg): 1 (6.7) n (%)
Discontinued study, primary reason Platelet Count Increase to ≧500 K/mm^3 (5 mg): 0 n (%)
Discontinued study, primary reason Adverse Event or SAE (10 mg): 1 (7.1) n (%)
Discontinued study, primary reason Platelet Count Increase to ≧500 K/mm^3 (10 mg): 0 n (%)
Discontinued study, primary reason Adverse Event or SAE (20 mg): 0 n (%)
Discontinued study, primary reason Platelet Count Increase to ≧500 K/mm^3 (20 mg): 2 (13.3) n (%)
Discontinued study, primary reason Adverse Event or SAE (Total E5501): 2 (3.4) n (%)
Discontinued study, primary reason Platelet Count Increase to ≧500 K/mm^3 (Total E5501): 2 (3.4) n (%)
Abdominal pain (2.5 mg): 0 n (%)
Diarrhoea (2.5 mg): 1 (6.7) n (%)
Ecchymosis (2.5 mg): 0 n (%)
Epistaxis (2.5 mg): 4 (26.7) n (%)
Fatigue (2.5 mg): 2 (13.3) n (%)
Headache (2.5 mg): 4 (26.7) n (%)
Migraine (2.5 mg): 0 n (%)
Nausea (2.5 mg): 0 n (%)
Pain in extremity (2.5 mg): 0 n (%)
Petechiae (2.5 mg): 0 n (%)
Platelet count increased (2.5 mg): 0 n (%)
Upper respiratory tract infection (2.5 mg): 1 (6.7) n (%)
Vomiting (2.5 mg): 1 (6.7) n (%)
Abdominal pain (5 mg): 2 (13.3) n (%)
Diarrhoea (5 mg): 2 (13.3) n (%)
Ecchymosis (5 mg): 0 n (%)
Epistaxis (5 mg): 2 (13.3) n (%)
Fatigue (5 mg): 4 (26.7) n (%)
Headache (5 mg): 3 (20.0) n (%)
Migraine (5 mg): 0 n (%)
Nausea (5 mg): 0 n (%)
Pain in extremity (5 mg): 2 (13.3) n (%)
Petechiae (5 mg): 0 n (%)
Platelet count increased (5 mg): 0 n (%)
Upper respiratory tract infection (5 mg): 0 n (%)
Vomiting (5 mg): 0 n (%)
Abdominal pain (10 mg): 0 n (%)
Diarrhoea (10 mg): 0 n (%)
Ecchymosis (10 mg): 3 (21.4) n (%)
Epistaxis (10 mg): 1 (7.1) n (%)
Fatigue (10 mg): 4 (28.6) n (%)
Headache (10 mg): 1 (7.1) n (%)
Migraine (10 mg): 0 n (%)
Nausea (10 mg): 2 (14.3) n (%)
Pain in extremity (10 mg): 0 n (%)
Petechiae (10 mg): 0 n (%)
Platelet count increased (10 mg): 0 n (%)
Upper respiratory tract infection (10 mg): 2 (14.3) n (%)
Vomiting (10 mg): 1 (7.1) n (%)
Abdominal pain (20 mg): 0 n (%)
Diarrhoea (20 mg): 2 (13.3) n (%)
Ecchymosis (20 mg): 0 n (%)
Epistaxis (20 mg): 2 (13.3) n (%)
Fatigue (20 mg): 2 (13.3) n (%)
Headache (20 mg): 4 (26.7) n (%)
Migraine (20 mg): 2 (13.3) n (%)
Nausea (20 mg): 1 (6.7) n (%)
Pain in extremity (20 mg): 1 (6.7) n (%)
Petechiae (20 mg): 2 (13.3) n (%)
Platelet count increased (20 mg): 4 (26.7) n (%)
Upper respiratory tract infection (20 mg): 0 n (%)
Vomiting (20 mg): 2 (13.3) n (%)
Abdominal pain (Total E5501): 2 (3.4) n (%)
